Test results published in patent US20110015198A1, “DIARYLMETHYLAMIDE DERIVATIVE HAVING MELANIN-CONCENTRATING HORMONE RECEPTOR ANTAGONISM” (BANYU PHARMACEUTICAL CO., INC., priority 2008, published 2011).

Molecular target: T1, human MCH-1R (Homo sapiens, UniProt Q99705)
T1 construct: expressed in transfected cells; host or cells: CHO-K1 (American Type Culture Collection), plasmid vector pEF/myc/cyto
Assay: MCH binding inhibition test
Conditions: membrane samples from MCH-1R expressing CHO-K1 cells, 50 pM [125I]MCH, 25° C., one hour; read-out: IC50 (nM); 50% inhibition concentration (IC50 value) for specific [125I]MCH binding
Excerpt: Pharmacological test example: MCH binding inhibition test A cDNA sequence encoding human MCH-1R [FEBS Letters, Vol. 398, 253 (1996); Biochimica et Biophisica Acta, Vol. 1401, 216 (1998)] was cloned to a plasmid vector pEF/myc/cyto (manufactured by Invitrogen). The obtained expression vector was transfected to a host cell CHO-K1 (American Type Culture Collection) using Lipofectamine Plus reagent (manufactured by Life Technology) to provide MCH-1R expression cells.
Membrane samples prepared from the MCH-1R expression cells were incubated with a test compound and 50 pM [^125I]MCH (manufactured by NEN) in an assay buffer (50 mM Tris buffer containing 10 mM magnesium chloride, 2 mM ethylenediamine tetraacetate, 0.01% bacitracin, and 0.2% bovine serum albumin; pH 7.4) at 25° C. for one hour, followed by filtration through a glass filter GF/C (manufactured by Wattman). The glass filter was washed with 50 mM Tris buffer (pH 7.4) containing 10 mM magnesium chloride, 2 mM ethylenediamine tetraacetate, and 0.04% Tween-20, and then the radioactivity on the glass filter was determined Non-specific binding was measured in the presence of 1 μM human MCH, and, with respect to each test compound, 50% inhibition concentration (IC50 value) for specific [^125I]MCH binding was determined.

T1 sequence (Q99705 whole entry): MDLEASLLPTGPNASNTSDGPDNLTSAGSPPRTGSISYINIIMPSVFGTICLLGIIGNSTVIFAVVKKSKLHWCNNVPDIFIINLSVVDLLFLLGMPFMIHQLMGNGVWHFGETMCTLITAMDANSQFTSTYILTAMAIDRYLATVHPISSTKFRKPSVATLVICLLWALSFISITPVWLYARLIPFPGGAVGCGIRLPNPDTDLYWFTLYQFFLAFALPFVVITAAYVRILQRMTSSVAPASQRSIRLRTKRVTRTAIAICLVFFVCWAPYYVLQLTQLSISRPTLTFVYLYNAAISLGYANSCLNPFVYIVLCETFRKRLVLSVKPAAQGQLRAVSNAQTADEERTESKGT

CN(C(=O)C(C)(C)O)C(c1ccc(F)c(F)c1)c1ccc(CN2CCC(c3ccc(F)nc3)CC2)cn1 (single isomer, unassigned) [Example 1-37, (R)— or (S)—N-[(3,4-difluorophenyl)(5-{[4-(6-fluoropyridin-3-yl)piperidin-1-yl]methyl}pyridin-2-yl)methyl]-2-hydroxy-N,2-dimethylpropanamide]
IC50: 17 nM

CC(NC(=O)C(F)F)(c1ccc(F)c(F)c1)c1ccc(CN2CCC(c3ccc(F)nc3)CC2)cn1 (single isomer, unassigned) [Example 1-58, (R)— or (S)—N-[1-(3,4-difluorophenyl)-1-(5-{[4-(6-fluoropyridin-3-yl)piperidin-1-yl]methyl}pyridin-2-yl)ethyl]-2,2-difluoroacetamide]
IC50: 1.7 nM

O=C1C(F)CCN1C(c1ccc(CN2CCC3(CC2)OCc2ccncc23)cc1)c1ccc(F)c(F)c1 (single isomer, unassigned) [Example 2-5, (3R)— or (3S)—[(R)— or (S)-1-{(3,4-difluorophenyl)[4-(1H,1′H-spiro[furo[3,4-c]pyridine-3,4′-piperidin]-1′-ylmethyl)phenyl]methyl}]-3-fluoropyrrolidin-2-one]
IC50: 0.18 nM

Cn1cc2c(cc1=O)C1(CCN(Cc3ccc(C(c4ccc(F)c(F)c4)N4CCCS4(=O)=O)cc3)CC1)OC2 (centres unmarked) [Example 1-20, 1′-{4-[(3,4-difluorophenyl)(1,1-dioxideisothiazolidin-2-yl)methyl]benzyl}-5-methyl-3,5-dihydro-6H-spiro[furo[3,4-c]pyridine-1,4′-piperidin]-6-one]
IC50: 2.9 nM

O=C1CCCN1C(c1ccc(CN2CCC3(CC2)OCc2ccncc23)cc1)c1ccc(F)c(F)c1 (centres unmarked) [Example 2-1, 1-{(3,4-difluorophenyl)[4-(1H,1′H-spiro[furo[3,4-c]pyridine-3,4′-piperidin]-1′-ylmethyl)phenyl]methyl}pyrrolidin-2-one]
IC50: 0.26 nM
